pIC50: −log10 of the molar value.
These molecules were tested against T1, LIMK2 (Homo sapiens, UniProt P53671) (assay: In vitro LIMK2 inhibition assay (33P incorporation into myelin basic protein flash plates)).
T1 construct: His tag (histidine-tagged; pFastBacHT vector); made in house; host or cells: Sf9 insect cells (BAC-to-BAC baculovirus system)
T1 sequence (P53671 whole entry): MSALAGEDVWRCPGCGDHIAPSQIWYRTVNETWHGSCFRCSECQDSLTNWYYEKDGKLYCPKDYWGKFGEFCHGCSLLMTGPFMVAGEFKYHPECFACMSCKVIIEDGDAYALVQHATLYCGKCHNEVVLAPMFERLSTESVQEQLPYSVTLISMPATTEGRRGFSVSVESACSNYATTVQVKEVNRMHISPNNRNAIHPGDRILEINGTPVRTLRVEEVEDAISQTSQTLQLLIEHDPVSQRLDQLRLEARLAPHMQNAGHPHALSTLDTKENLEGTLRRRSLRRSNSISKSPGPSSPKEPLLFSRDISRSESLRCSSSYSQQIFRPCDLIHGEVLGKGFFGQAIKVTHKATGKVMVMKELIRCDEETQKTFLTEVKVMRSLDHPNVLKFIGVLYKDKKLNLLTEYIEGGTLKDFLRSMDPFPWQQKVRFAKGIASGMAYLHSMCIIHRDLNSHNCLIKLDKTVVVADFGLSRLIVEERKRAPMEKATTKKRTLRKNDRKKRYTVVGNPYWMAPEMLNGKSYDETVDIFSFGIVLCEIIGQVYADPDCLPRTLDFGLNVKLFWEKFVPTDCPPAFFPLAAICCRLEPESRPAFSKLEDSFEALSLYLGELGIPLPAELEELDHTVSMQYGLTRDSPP
Type: biochemical
Procedure: Using the procedures described herein and methods known in the art, the additional compounds listed below in Table 1 were prepared. The LIMK2 IC50 data that is provided below for some of the compounds was determined using the assay described in Example 32.
An in vitro assay used to identify LIMK2 inhibitors was developed. The analytical readout was the incorporation of ^33P from ATP substrate into immobilized myelin basic protein coated flash plates (Perkin Elmer Biosciences), which were counted on a scintillation counter equipped with a plate reader (TopCount, Packard Bioscience, Meriden, Conn.). Using 384 well flat MBP flashplates, total assay volume was 50 μl. The HTS program utilized a Biomek FX for dilution.
For each assay, the ingredients and conditions were as follows: 200 ng of enzyme was incubated in assay buffer (1× assay buffer contains 30 mM HEPES (pH 8.0), 5 mM DTT, and 10 mM MgCl2), 10 μM ATP, 0.2 μCi [gamma-^33P]-ATP and 10 μM of potential inhibitory compound. The reaction was incubated at room temperature for 60 minutes, washed 3 times with 75 μl of stop/wash buffer (1× stop/was buffer contains 50 mM EDTA and 20 mM Tris (pH 7.4)), and then the plates were read on the scintillation counter. Different concentrations of staurosporine (400 nM, 200 nM, 100 nM and 50 nM; purchased from BIOMOL (Plymouth Meeting, Pa.)) were used as controls on each plate.
For `CC(=O)NCC1(C(=O)Nc2cccc(OC(=O)N(C)C)c2)CCN(c2ncnc3[nH]cc(C)c23)CC1` [3-(4-(acetamidomethyl)-1-(5-methyl-7H-pyrrolo[2,3-d]pyrimidin-4-yl)piperidine-4-carboxamido)phenyl dimethylcarbamate], the pIC50 was > 6.60.
With `CCN(CC)C(=O)Oc1cccc(NC(=O)C2(CN)CCN(c3ncnc4[nH]cc(C)c34)CC2)c1` [3-(4-(aminomethyl)-1-(5-methyl-7H-pyrrolo[2,3-d]pyrimidin-4-yl)piperidine-4-carboxamido)phenyl diethylcarbamate] the pIC50 was > 6.60.
With `Cc1c[nH]c2ncnc(N3CCC(CN)(C(=O)Nc4cccc(OC(=O)N5CCCC5)c4)CC3)c12` [3-(4-(aminomethyl)-1-(5-methyl-7H-pyrrolo[2,3-d]pyrimidin-4-yl)piperidine-4-carboxamido)phenyl pyrrolidine-1-carboxylate] the pIC50 was > 6.60.
`Cc1c[nH]c2ncnc(N3CCC(CN=[N+]=[N-])(C(=O)Nc4cccc(OC(=O)N(C)C)c4)CC3)c12` [3-(4-(azidomethyl)-1-(5-methyl-7H-pyrrolo[2,3-d]pyrimidin-4-yl)piperidine-4-carboxamido)phenyl dimethylcarbamate] was tested, and the pIC50 was > 6.60.
For `C=CCC1(C(=O)Nc2cccc(OC(=O)N(C)C)c2)CCN(c2ncnc3[nH]cc(C)c23)CC1` [3-(4-allyl-1-(5-methyl-7H-pyrrolo[2,3-d]pyrimidin-4-yl)piperidine-4-carboxamido)phenyl dimethylcarbamate], the pIC50 was > 6.60.
For `Cc1c[nH]c2ncnc(N3CCC(C#N)(C(=O)Nc4cccc(OC(=O)N(C)C)c4)CC3)c12` [3-(4-cyano-1-(5-methyl-7H-pyrrolo[2,3-d]pyrimidin-4-yl)piperidine-4-carboxamido)phenyl dimethylcarbamate], the pIC50 was > 6.60.
In the case of `Cc1c[nH]c2ncnc(N3CCC(C(=O)Nc4cccc(OC(=O)N(C)C)c4)(C(C)C)CC3)c12` [3-(4-isopropyl-1-(5-methyl-7H-pyrrolo[2,3-d]pyrimidin-4-yl)piperidine-4-carboxamido)phenyl dimethylcarbamate], the pIC50 was > 6.60.
In the case of `Cc1c[nH]c2ncnc(N3CCC(C)(C(=O)Nc4cccc(OC(=O)N5CCOCC5)c4)CC3)c12` [3-(4-methyl-1-(5-methyl-7H-pyrrolo[2,3-d]pyrimidin-4-yl)piperidine-4-carboxamido)phenyl morpholine-4-carboxylate], the pIC50 was > 6.60.
In the case of `CNc1nc2ccc(NC(=O)C3(CN)CCN(c4ncnc5[nH]cc(C)c45)CC3)cc2o1` [4-(aminomethyl)-1-(5-methyl-7H-pyrrolo[2,3-d]pyrimidin-4-yl)-N-(2-(methylamino)benzo[d]oxazol-6-yl)piperidine-4-carboxamide], the pIC50 was > 6.30.
`Cc1c[nH]c2ncnc(N3CCC(CN)(C(=O)Nc4cccc(-c5cnco5)c4)CC3)c12` [4-(aminomethyl)-1-(5-methyl-7H-pyrrolo[2,3-d]pyrimidin-4-yl)-N-(3-(oxazol-5-yl)phenyl)piperidine-4-carboxamide] was tested, and the pIC50 was > 6.60.
With `Cc1c[nH]c2ncnc(N3CCC(CN)(C(=O)Nc4cccc(C(F)(F)F)c4)CC3)c12` [4-(aminomethyl)-1-(5-methyl-7H-pyrrolo[2,3-d]pyrimidin-4-yl)-N-(3-(trifluoromethyl)phenyl)piperidine-4-carboxamide] the pIC50 was > 6.60.
In the case of `Cc1cccc(NC(=O)C2(CN)CCN(c3ncnc4[nH]cc(C)c34)CC2)c1` [4-(aminomethyl)-1-(5-methyl-7H-pyrrolo[2,3-d]pyrimidin-4-yl)-N-m-tolylpiperidine-4-carboxamide], the pIC50 was > 6.60.
With `Cc1c[nH]c2ncnc(N3CCC(CN)(C(=O)Nc4ccc5nc(N(C)C)oc5c4)CC3)c12` [4-(aminomethyl)-N-(2-(dimethylamino)benzo[d]oxazol-6-yl)-1-(5-methyl-7H-pyrrolo[2,3-d]pyrimidin-4-yl)piperidine-4-carboxamide] the pIC50 was > 6.30.
`Cc1c[nH]c2ncnc(N3CCC(CN)(C(=O)Nc4cccc(OCC(=O)N(C)C)c4)CC3)c12` [4-(aminomethyl)-N-(3-(2-(dimethylamino)-2-oxoethoxy)phenyl)-1-(5-methyl-7H-pyrrolo[2,3-d]pyrimidin-4-yl)piperidine-4-carboxamide] was tested, and the pIC50 was > 6.60.
For `COCCOc1cccc(NC(=O)C2(CN)CCN(c3ncnc4[nH]cc(C)c34)CC2)c1` [4-(aminomethyl)-N-(3-(2-methoxyethoxy)phenyl)-1-(5-methyl-7H-pyrrolo[2,3-d]pyrimidin-4-yl)piperidine-4-carboxamide], the pIC50 was > 6.60.
With `Cc1c[nH]c2ncnc(N3CCC(CN)(C(=O)Nc4cccc(C(=O)N(C)C)c4)CC3)c12` [4-(aminomethyl)-N-(3-(dimethylcarbamoyl)phenyl)-1-(5-methyl-7H-pyrrolo[2,3-d]pyrimidin-4-yl)piperidine-4-carboxamide] the pIC50 was > 6.60.
For `Cc1c[nH]c2ncnc(N3CCC(CN)(C(=O)Nc4cccc(C(=O)NC(C)C)c4)CC3)c12` [4-(aminomethyl)-N-(3-(isopropylcarbamoyl)phenyl)-1-(5-methyl-7H-pyrrolo[2,3-d]pyrimidin-4-yl)piperidine-4-carboxamide], the pIC50 was > 6.60.
`Cc1c[nH]c2ncnc(N3CCC(CN)(C(=O)Nc4cccc(Br)c4)CC3)c12` [4-(aminomethyl)-N-(3-bromophenyl)-1-(5-methyl-7H-pyrrolo[2,3-d]pyrimidin-4-yl)piperidine-4-carboxamide] was tested, and the pIC50 was > 6.60.
For `Cc1c[nH]c2ncnc(N3CCC(CN)(C(=O)Nc4cccc(Cl)c4)CC3)c12` [4-(aminomethyl)-N-(3-chlorophenyl)-1-(5-methyl-7H-pyrrolo[2,3-d]pyrimidin-4-yl)piperidine-4-carboxamide], the pIC50 was > 6.60.
With `Cc1c[nH]c2ncnc(N3CCC(CN)(C(=O)Nc4cccc(C#N)c4)CC3)c12` [4-(aminomethyl)-N-(3-cyanophenyl)-1-(5-methyl-7H-pyrrolo[2,3-d]pyrimidin-4-yl)piperidine-4-carboxamide] the pIC50 was > 6.60.
For `Cc1c[nH]c2ncnc(N3CCC(CN)(C(=O)Nc4cccc(F)c4)CC3)c12` [4-(aminomethyl)-N-(3-fluorophenyl)-1-(5-methyl-7H-pyrrolo[2,3-d]pyrimidin-4-yl)piperidine-4-carboxamide], the pIC50 was > 6.60.
In the case of `Cc1c[nH]c2ncnc(N3CCC(CN)(C(=O)Nc4cccc(O)c4)CC3)c12` [4-(aminomethyl)-N-(3-hydroxyphenyl)-1-(5-methyl-7H-pyrrolo[2,3-d]pyrimidin-4-yl)piperidine-4-carboxamide], the pIC50 was > 6.60.
With `Cc1c[nH]c2ncnc(N3CCC(CN)(C(=O)Nc4cccc(OC(C)C)c4)CC3)c12` [4-(aminomethyl)-N-(3-isopropoxyphenyl)-1-(5-methyl-7H-pyrrolo[2,3-d]pyrimidin-4-yl)piperidine-4-carboxamide] the pIC50 was > 6.60.
For `COc1cccc(NC(=O)C2(CN)CCN(c3ncnc4[nH]cc(C)c34)CC2)c1` [4-(aminomethyl)-N-(3-methoxyphenyl)-1-(5-methyl-7H-pyrrolo[2,3-d]pyrimidin-4-yl)piperidine-4-carboxamide], the pIC50 was > 6.60.
`Cc1c[nH]c2ncnc(N3CCC(CN)(C(=O)Nc4cccc(C(C)(C)C)c4)CC3)c12` [4-(aminomethyl)-N-(3-tert-butylphenyl)-1-(5-methyl-7H-pyrrolo[2,3-d]pyrimidin-4-yl)piperidine-4-carboxamide] was tested, and the pIC50 was > 6.60.
In the case of `C=CCC1(C(=O)Nc2cccc(Oc3ccc(F)cc3)c2)CCN(c2ncnc3[nH]cc(C)c23)CC1` [4-allyl-N-(3-(4-fluorophenoxy)phenyl)-1-(5-methyl-7H-pyrrolo[2,3-d]pyrimidin-4-yl)piperidine-4-carboxamide], the pIC50 was > 6.60.
With `C=CCC1(C(=O)Nc2cccc(Br)c2)CCN(c2ncnc3[nH]cc(C)c23)CC1` [4-allyl-N-(3-bromophenyl)-1-(5-methyl-7H-pyrrolo[2,3-d]pyrimidin-4-yl)piperidine-4-carboxamide] the pIC50 was > 6.60.
For `C=CCC1(C(=O)Nc2cccc(F)c2)CCN(c2ncnc3[nH]cc(C)c23)CC1` [4-allyl-N-(3-fluorophenyl)-1-(5-methyl-7H-pyrrolo[2,3-d]pyrimidin-4-yl)piperidine-4-carboxamide], the pIC50 was > 6.60.
For `C=CCC1(C(=O)Nc2cccc(OC)c2)CCN(c2ncnc3[nH]cc(C)c23)CC1` [4-allyl-N-(3-methoxyphenyl)-1-(5-methyl-7H-pyrrolo[2,3-d]pyrimidin-4-yl)piperidine-4-carboxamide], the pIC50 was > 6.60.
With `C=CCC1(C(=O)Nc2cccc(C(C)(C)C)c2)CCN(c2ncnc3[nH]cc(C)c23)CC1` [4-allyl-N-(3-tert-butylphenyl)-1-(5-methyl-7H-pyrrolo[2,3-d]pyrimidin-4-yl)piperidine-4-carboxamide] the pIC50 was > 6.60.
`Cc1c[nH]c2ncnc(N3CCC(C)(C(=O)Nc4cccc(C(F)(F)F)c4)CC3)c12` [4-methyl-1-(5-methyl-7H-pyrrolo[2,3-d]pyrimidin-4-yl) N-(3-(trifluoromethyl)phenyl)piperidine-4-carboxamide] was tested, and the pIC50 was > 6.60.
In the case of `Cc1c[nH]c2ncnc(N3CCC(C)(C(=O)Nc4cccc(S(=O)(=O)N5CCOCC5)c4)CC3)c12` [4-methyl-1-(5-methyl-7H-pyrrolo[2,3-d]pyrimidin-4-yl)-N-(3-(morpholinosulfonyl)phenyl)piperidine-4-carboxamide], the pIC50 was > 6.60.
With `Cc1cccc(NC(=O)C2(C)CCN(c3ncnc4[nH]cc(C)c34)CC2)c1` [4-methyl-1-(5-methyl-7H-pyrrolo[2,3-d]pyrimidin-4-yl)-N-m-tolylpiperidine-4-carboxamide] the pIC50 was > 6.60.

From patent publication US8450332B2, “LIMK2 inhibitors, compositions comprising them, and methods of their use” (Lexicon Pharmaceuticals, Inc., priority 2008, dated 2013)
